Assay [1] deals with T1, angiotensin type 2 (AT2) (Oryctolagus cuniculus, UniProt G1T351).
T1 construct: from tissue; host or cells: rabbit uterus
T1 sequence (G1T351 1-363): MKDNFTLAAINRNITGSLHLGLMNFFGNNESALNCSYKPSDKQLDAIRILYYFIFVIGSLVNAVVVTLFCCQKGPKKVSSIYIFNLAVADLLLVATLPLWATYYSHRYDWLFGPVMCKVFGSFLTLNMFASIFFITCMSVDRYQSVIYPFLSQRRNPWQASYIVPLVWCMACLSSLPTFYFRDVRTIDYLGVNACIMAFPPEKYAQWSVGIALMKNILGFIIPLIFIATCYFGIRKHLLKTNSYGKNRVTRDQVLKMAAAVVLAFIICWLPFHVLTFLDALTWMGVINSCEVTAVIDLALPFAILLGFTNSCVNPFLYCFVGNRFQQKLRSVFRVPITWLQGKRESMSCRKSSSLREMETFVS
In words: AT2 binding assay (rabbit uterus binding assay). The note with it: for IC50: rabbit uterus binding assay. From the text: (§1) A typical compound active in a rabbit uterus binding assay for detecting angiotensin type 2 (AT2) antagonists is compound 6 below. AT2 Binding Assay is a modification of the procedure by D. T. Dudley, et al, Mol. Pharmacol. 38:370 (1990) .

Assay [2] deals with angiotensin type 2 (AT2). In words: AT2 binding assay (rabbit uterus binding assay). The note with it: AT2 versus AT1.
Description: as §1

The subject of a further assay is AT1. In words: AT1 binding assay. The following applies: at 10^-5 M concentration.
The subject of another assay is AT-1 receptors. The following applies: cited from earlier work.

With `COc1ccc2c(c1OCc1ccccc1)CC(C(=O)O)N(C(=O)C(c1ccccc1)c1ccccc1)C2` (racemic) [Example 20, (RS)-2-(Diphenylacetyl)-1,2,3,4-tetrahydro-6-methoxy-5-(phenylmethoxy)-3-isoquinolinecarboxylic acid], at angiotensin type 2 (AT2) [1], the “binding affinity for the AT2 receptor site, in words” value is “high binding affinity” and the IC50 came out at 2.8 nM. The “selectivity for the AT2 site” value with angiotensin type 2 (AT2) [2] is listed as “highly selective for the AT2 site”. For the same compound, the “AT1 binding assay activity” value in the assay on AT1 was “inactive”.
Take `COc1cc2c(cc1OCc1ccccc1)CC(C(=O)O)N(C(=O)C(c1ccccc1)c1ccccc1)C2` (racemic) [Example 21, (RS)-2-(Diphenylacetyl)-1,2,3,4-tetrahydro-7-methoxy-6-(phenylmethoxy) -3-isoquinolinecarboxylic acid]: at angiotensin type 2 (AT2) [1], the IC50 worked out at 58.5 nM.
Same read-out and setting: the result for `COc1ccc2c(c1OCCc1ccccc1)CC(C(=O)O)N(C(=O)C(c1ccccc1)c1ccccc1)C2` (racemic) [Example 22, (RS)-2-(Diphenylacetyl)-1,2,3,4-tetrahydro-6-methoxy-5-(2-phenylethoxy)-3-isoquinolinecarboxylic acid] reads 8.9 nM.
On the same count and under the same terms, the result for `COc1ccc2c(c1OCc1ccccc1)CC(C(=O)O)N(C(=O)C(c1ccc(Cl)cc1)c1ccc(Cl)cc1)C2` (racemic) [Example 23, (RS)-2-[Bis(4-chlorophenyl)acetyl]-1,2,3,4-tetrahydro-6-methoxy-5-(phenylmethoxy)-3-isoquinolinecarboxylic acid] reads 24.2 nM; that for `COc1ccc2c(c1OCc1ccccc1)CC(C(=O)O)N(C(=O)C(c1ccccc1)C1CCCC1)C2` (racemic) [Example 24, (RS)-2-(Cyclopentylphenylacetyl)-1,2,3,4-tetrahydro-6-methoxy-5-(phenylmethoxy)-3-isoquinolinecarboxylic acid], 1.6 nM; that for `COc1ccc2c(c1OCc1ccccc1)CC(C(=O)O)N(C(=O)Cc1c(Cl)cccc1Cl)C2` (racemic) [Example 25, (RS)-2-[(2,6-Dichlorophenyl)acetyl]-1,2,3,4-tetrahydro-6-methoxy-5-(phenylmethoxy)-3-isoquinolinecarboxylic acid], 117 nM.
Turning to `COc1ccc2c(c1OCc1ccccc1)CC(C(=O)O)N(C(=O)N(C)c1ccccc1)C2` (racemic) [Example 26], the IC50 on angiotensin type 2 (AT2) [1] was determined as 8.4 nM.
With `COc1ccc(NC(=O)N2Cc3ccc(OC)c(OCc4ccccc4)c3CC2C(=O)O)cc1` (racemic) [Example 27, (RS)-1,2,3,4-Tetrahydro-6-methoxy-2-[[(4-methoxyphenyl)amino]carbonyl]-5-(phenylmethoxy)-3-isoguinolinecarboxylic acid], the IC50 on angiotensin type 2 (AT2) [1] worked out at 1110 nM.
As to `CCOC(=O)C1Cc2c(ccc(OC)c2OCc2ccccc2)CN1C(=O)C(c1ccccc1)c1ccccc1` (racemic) [Example 30, (RS)-2-(Diphenylacetyl)-1,2,3,4-tetrahydro-6-methoxy-5-phenylmethoxy-3-isoquinolinecarboxylic acid, ethyl ester], the IC50 at angiotensin type 2 (AT2) [1] turned out to be 151 nM.
Still for that read-out and setting: the result for `COc1ccc2c(c1OCc1ccc(C(=O)O)cc1)CC(C(=O)O)N(C(=O)C(c1ccccc1)c1ccccc1)C2` (racemic) [Example 33, (RS)-5-(4-Carboxyphenylmethoxy)-2-(diphenylacetyl)-1,2,3,4-tetrahydro-6-methoxy-3-isoquinolinecarboxylic acid] reads 752 nM; that for `COc1ccc(COc2c(OC)ccc3c2CC(C(=O)O)N(C(=O)C(c2ccccc2)c2ccccc2)C3)cc1C` (racemic) [Example 35], 1.9 nM.
With `CCCCc1nc(Cl)c(CO)n1Cc1ccc(-c2ccccc2-c2nn[nH]n2)cc1` [Dup753], in the assay on AT-1 receptors, the “selective antagonism of AT-1 receptors” value is on record as “selectively antagonized”.

Broadly, the IC50 is the concentration that inhibits the measured activity by half. Low values mean higher potency, high ones lower potency.

Source of the values: patent publication US5350757A, “Substituted 1,2,3,4-tetrahydroisoquinolines with angiotensin II receptor antagonist properties” (Warner-Lambert Company, priority 1993, dated 1994).
